# In patent publication US20090264533A1, “Methods and Compositions for Modulating RHO-Mediated Gene Transcription” (priority 2005, published 2009):
# Where “and” joins values, the source holds several entries; their conditions need not be identical. Equal values may be shown once. Entries after “also recorded” stand apart in the source; their conditions may differ. Read-outs that look alike come from different tables or passages of the source.
# What was measured:
# [1] = test system: Gα13/LARG/SRE transcriptional signaling pathway; assay: Gα13QL/LARG-stimulated SRE.L luciferase reporter assay (HTS) in HEK293T cells; assay type: cell-based, human; conditions: for Inhibition of G13/LARG-stimulated rho transcriptional signaling: FIG. 5
# Description: FIG. 2 Optimization of HTS Assay. HEK293T cells in 10 cm dishes were co-transfected with 2×-SRE luciferase reporter plasmid (3000 ng) alone or with Gα13QL (5 ng constitutive active mutant) and LARG (150 ng) expression plasmids for 5 hours. Then, the cells were plated into 96-well, and serum-starved for approx. 18 hours (0.5% Fetal Bovine Serum, DMEM medium). Cells were lysed and assayed for luciferase activity via Steady-Glo reagent (Promega) and a luminometer.
# In exemplary embodiments of the present invention, HEK293T cells were transiently transfected with a 2×SRE.L-luciferase reporter plasmid that responds selectively to rho signaling (Hill et al., Cell 81:1159-1170, 1995). […] This expression plasmid is specific for rho/MKL/SRF driven gene expression. To stimulate rho, the upstream activators G13 and LARG (FIG. 1) were used. A constitutively active Gα13Q226L plasmid was co-transfected, along with an N-terminal myc-tagged LARG plasmid from Dr. Tohru Kozasa.
# To use the reporter assay readout for high throughput chemical inhibition studies, the assay was modified to accommodate chemical inhibitors. Transfection was performed in 10 cm dishes with Lipofectamine 2000. Five hours after transfection, the cells were trypsinized and 30,000 cells per well were transferred into sterile white flat-bottom 96-well plates pre-spotted with 1 μl of chemical compound in DMSO (10 μM final conc). Cells were grown overnight in low serum (0.5% FBS/DMEM medium) exposed to the chemical compounds (in 1% DMSO) for approximately 18 hours before luminescence was read with Steady-Glo luciferase reagent (Promega) in a Victor II plate reader. As a positive inhibitor control, 0.5 μM of Latrunculin B was added to 8 wells per plate. In addition, 8 wells were treated with DMSO only. Latrunculin B is a marine toxin from the Red Sea sponge that is known to sequester monomeric G-actin in the cell and block rho-mediated transcriptional events (Miralles et al., Cell 113:329-342, 2003). The percent inhibition of the Gα13 QL/LARG stimulated SRE-luciferase response was calculated by setting the mean of the negative control (DMSO only) at 0% and the mean of the positive control (Latrunculin B) at 100%. The Z′ score of the assay for high throughput screening was excellent at 0.7 (FIG. 2) indicating reproducibility well-suited to HTS studies.
# (§1) An exemplary screen for small molecule inhibitors of the Gα13/LARG/SRE transcriptional signaling pathway utilized a 2000 compound subset of the Maybridge Diverse Chemical Compound Library at 10 μM in the firefly luciferase assay described above. SRE transcription was stimulated by co-transfection of the constitutively active Gα13QL with LARG. […] A cutoff of 75% inhibition was chosen to identify hits for inhibition of the Gα13/LARG/SRE transcriptional signaling pathway. A total of 39 out of 2000 compounds met this criterion. […] To address this issue, a dual luciferase method with a “flash” luciferase substrate plus CMV-Renilla was used as a non-SRF-dependent reporter to eliminate toxic compounds (Table 2). This screen yielded only 4 compounds that were active and specific for the SRE.L reporter signal.
# [2] = test system: SRE Luciferase; assay: SRE Luciferase reporter with different rho pathway activators (PC-3 cells, FIG. 8, FIG. 13); assay type: cell-based, human; conditions: for luciferase expression induced by G13, LARG or constitutively active rhoA-GV: FIG. 8
# Description: (§2) FIG. 8 Inhibition of reporter gene transcription in PC-3 cells. CCG 1423 (10 μM) acts at the transcriptional level inhibiting SRE Luciferase stimulated by both upstream (Gα13, LARG, and RhoA-GV) and downstream signals (MKL1).
# FIG. 13. Inhibition by CCG-1423 of three different rho pathway activators (G13, rhoA-GV, and MKL1) with no effect on control reporter plasmid CMV-Renilla.
# (§3) The point of action of these inhibitors in the assay was investigated by transfecting the cells with different activators of the pathway (rho, MKL1, and an activated SRF analog SRF-VP16). […] This is consistent with the known site of action of Latruculin. […] Thus, the compounds may be acting by inhibiting MKL- or SRF- or both MKL and SRF-dependent gene transcription. […] Regardless of the mechanism of action, the present invention describes a novel gene transcription inhibitor that selectively prevents MKL/SRF-mediated signals.
# [3] = test system: CMV-Renilla; assay: CMV-Renilla control reporter expression; assay type: cell-based
# Description: (§4) FIG. 6 CCG-1423 inhibits both RhoA and RhoC transcriptional signals. Cells were transfected with the dual reporters SRE-Luciferase and CMV-Renilla then 6 hours later, 6 micromolar CCG-1423 was added and reporter activity measured 16 hours later.
# as §2, §1, §3
# [4] = test system: GAL4-VP16 Luciferase; assay: GAL4-VP16 Luciferase control reporter; assay type: cell-based
# [5] = test system: RhoA; assay: RhoA transcriptional signal, SRE-Luciferase / CMV-Renilla dual reporters (FIG. 6); assay type: cell-based; conditions: 6 micromolar, added 6 hours after transfection, read 16 hours later
# Description: as §4
# [6] = test system: RhoC; assay: RhoC transcriptional signal, SRE-Luciferase / CMV-Renilla dual reporters (FIG. 6); assay type: cell-based; conditions: 6 micromolar, added 6 hours after transfection, read 16 hours later
# Description: as §4
# [7] = test system: ras; assay: ras-stimulated transcriptional signals (c-fos and SRE.L reporters, FIG. 14); assay type: cell-based; conditions: for ras-stimulated transcriptional signals: c-fos reporter, FIG. 14 bottom panel
# From the text: FIG. 14. […] The rho reporter SRE.L can also be activated by ras (probably via rho activation).
# [8] = test system: PC-3 prostate cancer cells; assay: DNA synthesis (BrdU incorporation) in PC-3 cells; assay type: cell-based, human; conditions: presence of serum
# Description: FIG. 9 Serum and LPA stimulate DNA synthesis in PC-3 cells. PC-3 cells serum starved for 24 hours were treated for an additional 24 hours in the presence of serum (10% FBS) or the indicated concentrations of LPA. BrdU was added to the medium for the last 2 hours and incorporated BrdU detected in 96-well plates by immunostaining.
# FIG. 10 CCG-1423 inhibits LPA- but not FBS-stimulated DNA synthesis in PC-3 prostate cancer cells.
# [9] = test system: SKOV-3 ovarian cancer cell line; assay: BrdU incorporation in SKOV-3 cells; assay type: cell-based
# [10] = test system: SKOV-3 cells; assay: Matrigel matrix invasion by SKOV-3 cells; assay type: cell-based
# Description: FIG. 11 CCG-1423 inhibits the spontaneous matrix invasion by PC-3 cells. Top) One prostate and three ovarian cancer lines (50,000 cells per well) were lifted with trypsin, suspended in serum free medium and plated on 24-well Matrigel inserts with (solid) or without (hatched) 30 μM LPA in the lower chamber. After 24 hours, cells above the filter were wiped off and the remaining cells were fixed, stained, and counted to determine the number of cells that had invaded the Matrigel. Bottom) Matrigel invasion by PC-3 cells (-LPA) and SKOV-3 cells (+30 μM LPA) was tested in the presence of the indicated concentrations of CCG-1423.
# [11] = test system: SKOV-3 cells; assay: Cell growth (WST1 absorbance) of SKOV-3 cells; assay type: cell-based
# Description: PC-3 or SKOV-3 cells (2000 per well) were plated in medium containing 2% FBS. After growth overnight, the indicated concentrations of CCG-1423 were added from a DMSO stock (<1% final) and cells allowed to continue growing for an additional 7 days. Cell growth was measured by WST1 absorbance (similar to MTT). The IC50 values for PC-3 and SKOV-3 cells were 600 nM and 3 μM. The dotted line represents a no-cell blank.
# [12] = test system: PC-3 cells; assay: WST1 metabolism viability control for BrdU studies; assay type: cell-based, human; conditions: 10 uM, 18 hours of drug treatment, absence of serum
# Description: Even more exciting are the effects of the novel inhibitors of the present invention on PC-3 cell functions (LPA-stimulated DNA synthesis, proliferation, and invasion). More particularly, it is shown that for the highly aggressive human PC-3 prostate cancer cell line, the novel inhibitors described herein inhibit proliferation, LPA-stimulated DNA synthesis, and matrix invasion. All of these effects occur at remarkably similar concentrations (IC50 900, 830, and 600 nM, respectively). This is also very similar to the concentration needed to inhibit rho-stimulated SRE.L luciferase expression in HEK293T cells (980 nM). […] Only at high concentrations (10 uM) is there any effect on proliferation or matrix invasion and there is no inhibition of BrdU incorporation as well.
# [13] = test system: RGS-rhoGEFs (LARG, PDZrhoGEF, p115rhoGEF); assay: rhoGEF-stimulated SRE.L dual luciferase assay in HEK293 cells; assay type: cell-based, human; conditions: 0.5 μM
# Description: Luciferase Assays—Twenty-four hours post-transfection with firefly and Renilla vectors, HEK293 cells were serum-starved (0.5% serum), and then at 48 h, luciferase activity was determined using the dual luciferase assay kit (Promega, Madison, Wis.) according to the manufacturer's instructions. The ratio of firefly to Renilla luciferase counts was calculated. Data are expressed as the percent of the control value (samples without siRNA).
# In these studies, each rhoGEF plasmid DNA (p115, PDZ, or LARG) was introduced into HEK293T cells using LipofectAMINE 2000 in a 96-well plate along with the dual luciferase reporters (SRE.L and pRL-TK) and a panel of different rhoGEF siRNAs (+) or inverted mutant siRNAs (−). […] Firefly/Renilla ratios for the siRNAs (+ and −) were expressed as a percent of that for buffer controls with only the rhoGEF and reporter cDNAs transfected.
# [14] = test system: ROCK; assay: Luciferase expression stimulated by transfecting in the kinase ROCK; assay type: cell-based
# [15] = test system: PC-3 cells; assay: Cell rounding assay in PC-3 cells; assay type: cell-based, human; conditions: 30 min
# Description: Cell Rounding Assay—The day before transfection, PC-3 cells were grown on laminin-coated coverslips in 12-well plates until […]. Cells were then transfected with 0.2 μg of EGFP cDNA. To disrupt rho signaling GFP was co-transfected with either a C3 exotoxin expression vector (0.5 μg) or with 2.0 μg of the indicated siRNA or inverted control along with 8 μl/well of LipofectAMINE 2000. At 45 h post-transfection, cultures were changed to serum-free medium and 6 h later treated with either buffer, thrombin (100 nM), or LPA (50 μM) for 30 min. Cells were then fixed with 4% paraformaldehyde for 10 min and GFP images obtained using an Olympus fluorescence microscope with a 20× objective. Fluorescent cells were counted (100-300 per coverslip) and the percentage of rounded cells determined. Cell rounding at 30 min was dose-dependent (EC50 80 nM for thrombin and 50 μM for LPA) and reversible upon removal of thrombin for 45 min.
# rho stimulates several types of cytoskeletal rearrangements. […] In these studies, at 48 h after transfection, cells were stimulated with thrombin (100 nM) or LPA (50 μM) for 30 min, fixed, and fluorescence images taken. […] At 48 h post-transfection cells were stimulated with thrombin or LPA and analyzed as described above. One-hundred green cells from each coverslip were counted, and the percentage of round cells was determined. […]
compound,measurement,setting,value
CC(ONC(=O)c1cc(C(F)(F)F)cc(C(F)(F)F)c1)C(=O)Nc1ccc(Cl)cc1 (stereo not drawn) [CCG-1423],Inhibition of G13/LARG-stimulated rho transcriptional signaling,[1],Inhibition
same,IC50,"[1]; HEK293T cells, dose response curves, read-out: IC50, inhibition of G13/LARG (rho-) stimulated SRE.L luciferase expression",~1000 nM and 980 nM and 800 nM
same,IC50,"[1]; HTS reporter assay, read-out: IC50, inhibition of MKL/SRF-dependent gene transcription",~800 nM
same,luciferase expression activated by SRF-VP16,[2],inhibited; also recorded: able to inhibit
same,luciferase expression induced by MKL,[2],inhibited
same,"SRE Luciferase stimulated by upstream (Gα13, LARG, and RhoA-GV) and downstream signals (MKL1)","[2]; 10 μM, PC-3 cells",inhibiting
same,SRF-VP16 Luciferase,"[2]; 10 μM, PC-3 cells",no effect
same,"luciferase expression induced by G13, LARG or constitutively active rhoA-GV",[2],inhibited
same,"three different rho pathway activators (G13, rhoA-GV, and MKL1)",[2]; FIG. 13,Inhibition
same,CMV-Renilla expression,[3]; 3 μM,did not inhibit
same,CMV-driven Renilla expression,"[3]; 10 μM, PC-3 cells",does not inhibit
same,control reporter CMV-Renilla expression,[3]; concentration not given,not inhibited; also recorded: no effect
same,Gal-4-VP16 Luciferase signal,[4]; 3 μM,only a slight inhibitory effect
same,GAL4-VP16 Luciferase,"[4]; 10 μM, PC-3 cells",no effect
same,RhoA transcriptional signal (SRE-Luciferase),[5],blocking; also recorded: inhibits
same,RhoC transcriptional signal (rhoC-stimulated luciferase expression),[6],inhibits
same,ras-stimulated transcriptional signals,[7],inhibition
same,FBS (serum)-stimulated DNA synthesis,[8],not inhibited until high concentrations are reached
same,inhibition of BrdU incorporation,[9],no inhibition
same,concentration at which there is any effect on matrix invasion,[10],10 µM
same,concentration at which there is any effect on proliferation,[11],10 µM
same,IC50,"[11]; 2% FBS, 7 days, WST1",3000 nM
same,viable cells (WST1 metabolism),[12],no decrease in viable cells
"C/C1=C/C(=O)O[C@@H]2C[C@@H](CC[C@H](C)/C=C\CC1)O[C@@](O)([C@@H]1CSC(=O)N1)C2 [Latrunculin B, reference compound]",Inhibition of G13/LARG-stimulated rho transcriptional signaling,[1],Inhibition
same,luciferase expression activated by SRF-VP16,[2],did not inhibit
same,"luciferase expression induced by G13, LARG or constitutively active rhoA-GV",[2],fully inhibits
same,SRE.L rho reporter signal activated by ras,[7]; FIG. 14,blocked
same,ras-stimulated transcriptional signals,[7],not
same,rhoGEF-stimulated luciferase signal,[13],completely eliminated
"C[C@@H](N)[C@H]1CC[C@H](C(=O)Nc2ccncc2)CC1 [Y-27632, reference compound]",Inhibition of G13/LARG-stimulated rho transcriptional signaling,[1],only partially blocked; also recorded: Inhibition
same,luciferase expression stimulated by transfecting in the kinase ROCK,[14],fully inhibited
"lysophosphatidic acid [LPA, reference compound]",EC50,[15],50000 nM
thrombin,EC50,[15],80 nM
